{"source": "patent US20060069132A1", "about": "“Azolecarboxamide herbicides” (priority 2004, published 2006)", "key": {"[1]": {"test_system": "large crabgrass", "test": "Test B pre-/postemergence herbicide test", "assay_type": "in vivo, Digitaria sanguinalis", "details": "for Plant response rating (0 to 100 scale), Crabgrass, Large: 0 is no effect, preemergence; for Crabgrass, Large plant response rating: postemergence", "summary_of_the_method": "(§1)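 Seeds were planted and treated preemergence with compounds formulated in a non-phytotoxic solvent mixture containing surfactant, while plants at the 1- to 4-leaf stage (2 to 18 cm) received postemergence sprays. Flooded paddy plants were grown to the 2-leaf stage. After 13 to 15 days in a greenhouse, injury was visually rated 0–100 against untreated controls.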"}, "[2]": {"test_system": "ducksalad", "test": "Test B flooded paddy test", "assay_type": "in vivo, Heteranthera limosa", "details": "1000 g ai/ha, scale 0 to 100 (0 no effect, 100 complete control)", "summary_of_the_method": "(§2)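 Postemergence plants were sprayed with formulated test chemicals at 2 to 18 cm height (1- to 4-leaf stage); paddy species were grown to the 2-leaf stage. After 13 to 15 days in a greenhouse, injury was rated visually against untreated controls on a 0–100 scale (0 = no effect, 100 = complete control).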"}, "[3]": {"test_system": "small flower umbrella sedge", "test": "Test B flooded paddy test", "assay_type": "in vivo, Cyperus difformis", "details": "1000 g ai/ha, scale 0 to 100 (0 no effect, 100 complete control)", "summary_of_the_method": "as §2"}, "[4]": {"test_system": "rice", "test": "Test B flooded paddy test", "assay_type": "in vivo, Oryza sativa", "details": "1000 g ai/ha, scale 0 to 100 (0 no effect, 100 complete control)", "summary_of_the_method": "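Visual ratings, 0 (no effect) to 100 (complete control), made versus controls after 13–15 d greenhouse. Paddy plants treated at 2-leaf stage; postemergence plants at 1- to 4-leaf stage, 2–18 cm tall.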"}, "[5]": {"test_system": "velvetleaf", "test": "Test B pre-/postemergence herbicide test", "assay_type": "in vivo, Abutilon theophrasti", "details": "for Plant response rating (0 to 100 scale), Velvetleaf: 0 is no effect, 100 is complete control, preemergence; for Velvetleaf plant response rating: scale 0 (no effect) to 100 (complete control)", "summary_of_the_method": "as §1"}, "[6]": {"test_system": "pigweed", "test": "Test B pre-/postemergence herbicide test", "assay_type": "in vivo, Amaranthus retroflexus", "details": "for Pigweed plant response rating: scale 0 (no effect) to 100 (complete control)", "summary_of_the_method": "as §1"}, "[7]": {"test_system": "wild oat", "test": "Test B postemergence herbicide test", "assay_type": "in vivo, Avena fatua", "details": "scale 0 (no effect) to 100 (complete control)", "summary_of_the_method": "as §2"}, "[8]": {"test_system": "corn", "test": "Test B pre-/postemergence herbicide test", "assay_type": "in vivo, Zea mays", "details": "for Plant response rating (0 to 100 scale), Corn: 0 is no effect, preemergence; for Corn plant response rating: postemergence", "summary_of_the_method": "as §1"}, "[9]": {"test_system": "barnyardgrass", "test": "Test B pre-/postemergence herbicide test", "assay_type": "in vivo, Echinochloa crus-galli", "details": "for Plant response rating (0 to 100 scale), Barnyardgrass: 0 is no effect, preemergence; for Barnyardgrass plant response rating: postemergence", "summary_of_the_method": "as §1"}, "[10]": {"test_system": "lambsquarters", "test": "Test B pre-/postemergence herbicide test", "assay_type": "in vivo, Chenopodium album", "details": "for Plant response rating (0 to 100 scale), Lambsquarters: 0 is no effect, 100 is complete control, preemergence; for Lambsquarters plant response rating: scale 0 (no effect) to 100 (complete control)", "summary_of_the_method": "as §1"}, "[11]": {"test_system": "blackgrass", "test": "Test B postemergence herbicide test", "assay_type": "in vivo, Alopecurus myosuroides", "details": "postemergence", "summary_of_the_method": "as §2"}, "[12]": {"test_system": "morningglory", "test": "Test B pre-/postemergence herbicide test", "assay_type": "in vivo, Ipomoea coccinea", "details": "for Plant response rating (0 to 100 scale), Morningglory: 0 is no effect, 100 is complete control, preemergence; for Morningglory plant response rating: scale 0 (no effect) to 100 (complete control)", "summary_of_the_method": "as §1"}, "[13]": {"test_system": "barnyardgrass", "test": "Test B flooded paddy test", "assay_type": "in vivo, Echinochloa crus-galli", "details": "1000 g ai/ha, scale 0 to 100 (0 no effect, 100 complete control)", "summary_of_the_method": "as §2"}, "[14]": {"test_system": "giant foxtail", "test": "Test B pre-/postemergence herbicide test", "assay_type": "in vivo, Setaria faberi", "details": "for Plant response rating (0 to 100 scale), Foxtail, Giant: 0 is no effect, preemergence; for Foxtail, Giant plant response rating: postemergence", "summary_of_the_method": "as §1"}, "[15]": {"test_system": "cocklebur", "test": "Test B pre-/postemergence herbicide test", "assay_type": "in vivo, Xanthium strumarium", "details": "for Plant response rating (0 to 100 scale), Cocklebur: 0 is no effect, preemergence; for Cocklebur plant response rating: postemergence", "summary_of_the_method": "as §1"}, "[16]": {"details": "125 g ai/ha, 100 is complete control"}, "[17]": {"details": "125 g ai/ha, visual rating, scale 0 (no effect) to 100 (complete control)"}, "[18]": {"details": "500 g ai/ha, scale 0 to 100, 0 is no effect, 100 is complete control"}, "[19]": {"details": "125 g ai/ha, visual rating, postemergence"}}, "data": [{"smiles": "CCc1nn(C(C)(C)CC)nc1C(=O)Nc1cccc(C(=O)N(C)C)c1", "note": "[Compound 372]", "values": [{"measurement": "Plant response rating (0 to 100 scale), Crabgrass, Large", "setting": "[1]; [16]", "result": 80}, {"measurement": "Crabgrass, Large plant response rating", "setting": "[1]; [17]", "result": 10}, {"measurement": "Crabgrass, Large plant response rating", "setting": "[1]; [18]", "result": 20}, {"measurement": "Ducksalad plant response rating", "setting": "[2]", "result": 90}, {"measurement": "Sedge, Umbrella plant response rating", "setting": "[3]", "result": 90}, {"measurement": "Rice plant response rating", "setting": "[4]", "result": 90}, {"measurement": "Plant response rating (0 to 100 scale), Velvetleaf", "setting": "[5]; 125 g ai/ha", "result": 10}, {"measurement": "Velvetleaf plant response rating", "setting": "[5]; [19]", "result": 10}, {"measurement": "Velvetleaf plant response rating", "setting": "[5]; Postemergence, 500 g ai/ha", "result": 30}, {"measurement": "Pigweed plant response rating", "setting": "[6]; [19]", "result": 40}, {"measurement": "Pigweed plant response rating", "setting": "[6]; Postemergence, 500 g ai/ha", "result": 80}, {"measurement": "Oat, Wild plant response rating", "setting": "[7]; [19]", "result": 0}, {"measurement": "Oat, Wild plant response rating", "setting": "[7]; Postemergence, 500 g ai/ha", "result": 30}, {"measurement": "Plant response rating (0 to 100 scale), Corn", "setting": "[8]; [16]", "result": 60}, {"measurement": "Corn plant response rating", "setting": "[8]; [17]", "result": 20}, {"measurement": "Corn plant response rating", "setting": "[8]; [18]", "result": 60}, {"measurement": "Plant response rating (0 to 100 scale), Barnyardgrass", "setting": "[9]; [16]", "result": 80}, {"measurement": "Barnyardgrass plant response rating", "setting": "[9]; [17]", "result": 10}, {"measurement": "Barnyardgrass plant response rating", "setting": "[9]; [18]", "result": 60}, {"measurement": "Plant response rating (0 to 100 scale), Lambsquarters", "setting": "[10]; 125 g ai/ha", "result": 100}, {"measurement": "Lambsquarters plant response rating", "setting": "[10]; [19]", "result": 40}, {"measurement": "Lambsquarters plant response rating", "setting": "[10]; Postemergence, 500 g ai/ha", "result": 90}, {"measurement": "Blackgrass plant response rating", "setting": "[11]; [17]", "result": 10}, {"measurement": "Blackgrass plant response rating", "setting": "[11]; [18]", "result": 30}, {"measurement": "Plant response rating (0 to 100 scale), Morningglory", "setting": "[12]; 125 g ai/ha", "result": 10}, {"measurement": "Morningglory plant response rating", "setting": "[12]; [19]", "result": 20}, {"measurement": "Morningglory plant response rating", "setting": "[12]; Postemergence, 500 g ai/ha", "result": 60}, {"measurement": "Barnyardgrass plant response rating", "setting": "[13]", "result": 90}, {"measurement": "Plant response rating (0 to 100 scale), Foxtail, Giant", "setting": "[14]; [16]", "result": 60}, {"measurement": "Foxtail, Giant plant response rating", "setting": "[14]; [17]", "result": 30}, {"measurement": "Foxtail, Giant plant response rating", "setting": "[14]; [18]", "result": 50}, {"measurement": "Plant response rating (0 to 100 scale), Cocklebur", "setting": "[15]; [16]", "result": 10}, {"measurement": "Cocklebur plant response rating", "setting": "[15]; [17]", "result": 20}, {"measurement": "Cocklebur plant response rating", "setting": "[15]; [18]", "result": 30}]}, {"smiles": "CCNC(=O)c1cccc(NC(=O)c2nn(C(C)(C)CC)nc2CC)c1", "note": "[Compound 376]", "values": [{"measurement": "Plant response rating (0 to 100 scale), Crabgrass, Large", "setting": "[1]; [16]", "result": 80}, {"measurement": "Crabgrass, Large plant response rating", "setting": "[1]; [17]", "result": 10}, {"measurement": "Crabgrass, Large plant response rating", "setting": "[1]; [18]", "result": 50}, {"measurement": "Ducksalad plant response rating", "setting": "[2]", "result": 90}, {"measurement": "Sedge, Umbrella plant response rating", "setting": "[3]", "result": 80}, {"measurement": "Rice plant response rating", "setting": "[4]", "result": 60}, {"measurement": "Plant response rating (0 to 100 scale), Velvetleaf", "setting": "[5]; 125 g ai/ha", "result": 10}, {"measurement": "Velvetleaf plant response rating", "setting": "[5]; [19]", "result": 20}, {"measurement": "Velvetleaf plant response rating", "setting": "[5]; Postemergence, 500 g ai/ha", "result": 40}, {"measurement": "Plant response rating (0 to 100 scale), Pigweed", "setting": "[6]; 125 g ai/ha, 0 is no effect, 100 is complete control, preemergence", "result": 100}, {"measurement": "Pigweed plant response rating", "setting": "[6]; [19]", "result": 70}, {"measurement": "Pigweed plant response rating", "setting": "[6]; Postemergence, 500 g ai/ha", "result": 90}, {"measurement": "Oat, Wild plant response rating", "setting": "[7]; [19]", "result": 20}, {"measurement": "Oat, Wild plant response rating", "setting": "[7]; Postemergence, 500 g ai/ha", "result": 40}, {"measurement": "Plant response rating (0 to 100 scale), Corn", "setting": "[8]; [16]", "result": 40}, {"measurement": "Corn plant response rating", "setting": "[8]; [17]", "result": 10}, {"measurement": "Corn plant response rating", "setting": "[8]; [18]", "result": 30}, {"measurement": "Plant response rating (0 to 100 scale), Barnyardgrass", "setting": "[9]; [16]", "result": 80}, {"measurement": "Barnyardgrass plant response rating", "setting": "[9]; [17]", "result": 10}, {"measurement": "Barnyardgrass plant response rating", "setting": "[9]; [18]", "result": 40}, {"measurement": "Plant response rating (0 to 100 scale), Lambsquarters", "setting": "[10]; 125 g ai/ha", "result": 100}, {"measurement": "Lambsquarters plant response rating", "setting": "[10]; [19]", "result": 70}, {"measurement": "Lambsquarters plant response rating", "setting": "[10]; Postemergence, 500 g ai/ha", "result": 90}, {"measurement": "Blackgrass plant response rating", "setting": "[11]; [17]", "result": 10}, {"measurement": "Blackgrass plant response rating", "setting": "[11]; [18]", "result": 40}, {"measurement": "Plant response rating (0 to 100 scale), Morningglory", "setting": "[12]; 125 g ai/ha", "result": 10}, {"measurement": "Morningglory plant response rating", "setting": "[12]; [19]", "result": 30}, {"measurement": "Morningglory plant response rating", "setting": "[12]; Postemergence, 500 g ai/ha", "result": 60}, {"measurement": "Barnyardgrass plant response rating", "setting": "[13]", "result": 70}, {"measurement": "Plant response rating (0 to 100 scale), Foxtail, Giant", "setting": "[14]; [16]", "result": 70}, {"measurement": "Foxtail, Giant plant response rating", "setting": "[14]; [17]", "result": 30}, {"measurement": "Foxtail, Giant plant response rating", "setting": "[14]; [18]", "result": 60}, {"measurement": "Plant response rating (0 to 100 scale), Cocklebur", "setting": "[15]; [16]", "result": 0}, {"measurement": "Cocklebur plant response rating", "setting": "[15]; [17]", "result": 20}, {"measurement": "Cocklebur plant response rating", "setting": "[15]; [18]", "result": 30}]}]}
